Results reported in patent publication US10982284B2, “Compositions and methods APC, CREB, and BAD pathways to assess and affect cancer” (H. Lee Moffitt Cancer Center and Research Institute, Inc., priority 2011, dated 2021).

Tests used:
Assay in all cases: CellTiter-Blue cell viability assay
Type in all cases: cell-based, human
A2008 = A2008 ovarian cancer cell line; 72 hours; 50% reduction in growth/viability
Excerpt: (§1) Ovarian cancer cell lines were obtained from the American Type Culture Collection (Manassas, Va.) (CAOV3, OV90, OVCAR3, SKOV3, TO[…]); from the European Collection of Cell Cultures, Salisbury, UK (A2780CP, A2780S); or from Kyoto University, Kyoto, Japan ([…], Tyknu, and TyknuC is R) or were kind gifts from Dr. Patricia Kruk, Department of Pathology, College of Medicine, University of South Florida, Tampa, Fla., and Susan Murphy, PhD, Dept of OBGYN/Division of GYN Oncology, Duke University, Durham, N.C. […] Cell lines were maintained in RPMI-1640 (Invitrogen, Carlsbad, Calif.) supplemented with 10% fetal bovine serum (Fisher Scientific, Pittsburgh, Pa.), 1% sodium pyruvate, 1% penicillin/streptomycin (Cellgro, Manassas, Va.), and 1% nonessential amino acids (HyClone, Hudson, N.H.). Mycoplasma testing was performed every 6 months following manufacturer's protocol (Lonza, Rockland, Me.). Drug activity was evaluated using a high-throughput CellTiter-Blue cell viability assay. […] After cell adherence, increasing concentrations of cisplatin, carboplatin (Sigma-Aldrich, St. Louis, Mo.), paclitaxel (Sequoia Research Products Ltd., Pangbourne, UK), or carboplatin plus paclitaxel (carbotaxol: constant molar ratio of carboplatin to paclitaxel of 20,000:1) were added to appropriate wells using an automated pipetting station. Four replicate wells were used for each drug concentration and vehicle controls. […] The cells were incubated with the drug for 72 hours, and 5 μL of CellTiter-Blue reagent (Promega Corp) was added to each well. Fluorescence was read at […] using a Synergy 4 microplate reader (Bio-Tek Instruments, Inc., Winooski, Vt.).

A2780CP = A2780CP ovarian cancer cell line; 72 hours; 50% reduction in growth/viability
Excerpt: as §1

A2780S = A2780S ovarian cancer cell line; 72 hours; 50% reduction in growth/viability
Excerpt: as §1

BG1 = BG1 ovarian cancer cell line; 72 hours; 50% reduction in growth/viability
Excerpt: as §1

C13 = C13 ovarian cancer cell line; 72 hours; 50% reduction in growth/viability
Excerpt: as §1

CAOV2 = CAOV2 ovarian cancer cell line; 72 hours; 50% reduction in growth/viability
Excerpt: as §1

CAOV3 = CAOV3 ovarian cancer cell line; 72 hours; 50% reduction in growth/viability
Excerpt: as §1

CHIcisR = CHIcisR ovarian cancer cell line; 72 hours; 50% reduction in growth/viability
Excerpt: as §1

CHI = CHI ovarian cancer cell line; 72 hours; 50% reduction in growth/viability
Excerpt: as §1

Dov13 = Dov13 ovarian cancer cell line; 72 hours; 50% reduction in growth/viability
Excerpt: as §1

HeyA8 = HeyA8 ovarian cancer cell line; 72 hours; 50% reduction in growth/viability
Excerpt: as §1

IGR-OV1 = IGR-OV1 ovarian cancer cell line; 72 hours; 50% reduction in growth/viability
Excerpt: as §1

IMCC3 = IMCC3 ovarian cancer cell line; 72 hours; 50% reduction in growth/viability
Excerpt: as §1

IMCC5 = IMCC5 ovarian cancer cell line; 72 hours; 50% reduction in growth/viability
Excerpt: as §1

M41CSR = M41CSR ovarian cancer cell line; 72 hours; 50% reduction in growth/viability
Excerpt: as §1

M41 = M41 ovarian cancer cell line; 72 hours; 50% reduction in growth/viability
Excerpt: as §1

MCAS = MCAS ovarian cancer cell line; 72 hours; 50% reduction in growth/viability
Excerpt: as §1

OV2008 = OV2008 ovarian cancer cell line; 72 hours; 50% reduction in growth/viability
Excerpt: as §1

OVCA420 = OVCA420 ovarian cancer cell line; 72 hours; 50% reduction in growth/viability
Excerpt: as §1

OVCA429 = OVCA429 ovarian cancer cell line; 72 hours; 50% reduction in growth/viability
Excerpt: as §1

OVCA432 = OVCA432 ovarian cancer cell line; 72 hours; 50% reduction in growth/viability
Excerpt: as §1

OVCA433 = OVCA433 ovarian cancer cell line; 72 hours; 50% reduction in growth/viability
Excerpt: as §1

OVCAR10 = OVCAR10 ovarian cancer cell line; 72 hours; 50% reduction in growth/viability
Excerpt: as §1

OVCAR2 = OVCAR2 ovarian cancer cell line; 72 hours; 50% reduction in growth/viability
Excerpt: as §1

OVCAR3 = OVCAR3 ovarian cancer cell line; 72 hours; 50% reduction in growth/viability
Excerpt: as §1

OVCAR4 = OVCAR4 ovarian cancer cell line; 72 hours; 50% reduction in growth/viability
Excerpt: as §1

OVCAR5 = OVCAR5 ovarian cancer cell line; 72 hours; 50% reduction in growth/viability
Excerpt: as §1

OVCAR8 = OVCAR8 ovarian cancer cell line; 72 hours; 50% reduction in growth/viability
Excerpt: as §1

Ovary1847 = Ovary1847 ovarian cancer cell line; 72 hours; 50% reduction in growth/viability
Excerpt: as §1

SK-OV-4 = SK-OV-4 ovarian cancer cell line; 72 hours; 50% reduction in growth/viability
Excerpt: as §1

TyknuCisR = TyknuCisR ovarian cancer cell line; 72 hours; 50% reduction in growth/viability
Excerpt: as §1

Tyknu = Tyknu ovarian cancer cell line; 72 hours; 50% reduction in growth/viability
Excerpt: as §1

SMILES: N.N.[Cl][Pt][Cl] [Cisplatin, cisplatin]
- IC50 (A2008): 1.5 µM
- IC50 (A2780CP): 43.8 µM
- IC50 (A2780S): 4.7 µM
- IC50 (BG1): 36.4 µM
- IC50 (C13): 17.9 µM
- IC50 (CAOV2): 4.5 µM
- IC50 (CAOV3): 34.4 µM
- IC50 (CHIcisR): 1.3 µM
- IC50 (CHI): 4.9 µM
- IC50 (Dov13): 24.6 µM
- IC50 (HeyA8): 33.1 µM
- IC50 (IGR-OV1): 1.4 µM
- IC50 (IMCC3): 22 µM
- IC50 (IMCC5): 4.9 µM
- IC50 (M41CSR): 13.5 µM
- IC50 (M41): 12.8 µM
- IC50 (MCAS): 61.3 µM
- IC50 (OV2008): 3.5 µM
- IC50 (OVCA420): 13.7 µM
- IC50 (OVCA429): 5.8 µM
- IC50 (OVCA432): 1.4 µM
- IC50 (OVCA433): 8.8 µM
- IC50 (OVCAR10): 32.5 µM
- IC50 (OVCAR2): 3.7 µM
- IC50 (OVCAR3): 1.3 µM
- IC50 (OVCAR4): 20.5 µM
- IC50 (OVCAR5): 12.9 µM
- IC50 (OVCAR8): 75.3 µM
- IC50 (Ovary1847): 8.7 µM
- IC50 (SK-OV-4): 13 µM
- IC50 (TyknuCisR): 17.7 µM
- IC50 (Tyknu): 4.8 µM
